Laboratory results published in US11332477B2, “Nitrogen containing heterocycle substituted benzoxazine oxazolidinone compound and preparation method and use thereof” (INSTITUTE OF MATERIA MEDICA, CHINESE ACADEMY OF MEDICAL …, priority 2017, dated 2022).
≈ marks a conversion by molar mass, not a printed value.

Assays:
[1] = system: Mycobacterium tuberculosis H37Rv; test: Anti-tuberculosis activity test in vitro (Microplate Alamar Blue Assay, MABA); format: cell-based; settings: M. tuberculosis H37Rv, MABA, 7H9 medium, method says MIC90 was calculated, read-out: MIC
[2] = system: mitochondrial protein synthesis; test: Activity of inhibiting mitochondrial protein synthesis; format: biochemical; settings: mitochondrial protein synthesis inhibition, Table 3
Method: The experimental steps were carried out according to the literature (Antimicrobial Agents and Chemotherapy, 2006, 50 (6), 2042-2049).

Vero cells = test: Cytotoxicity test (MTT); format: cell-based; settings: Chlorocebus sabaeus; Vero cells, MTT, 48 hours of incubation, highest concentration 64 μg/mL; read-out: IC50

CC(=O)NC[C@@H]1OC(=O)N2c3cc(F)c(N4CC[S+]([O-])CC4)cc3OC[C@@H]12 [Compound 23, N-(((3S,3aS)-8-Fluoro-1-oxo-7-(1-oxidothiomorpholino)-3a,4-dihydro-1H,3H-benzo[b]oxazolo[3,4-d][1,4]oxazin-3-yl)methyl)acetamide]
MIC [1]: 0.442 µg/mL (≈ 1.11 µM)
melting point: 214 to 216 °C
IC50 [2]: 60.57 µg/mL (≈ 152 µM)
IC50 (Vero cells): > 64 µg/mL

O=C(NC[C@H]1OC(=O)N2c3cc(F)c(N4CCSCC4)cc3OC[C@H]12)C1CCC1 [Compound 29, N-(((3R,3aR)-8-Fluoro-1-oxo-7-thiomorpholino-3a,4-dihydro-1H,3H-benzo[b]oxazolo[3,4-d][1,4]oxazin-3-yl)methyl)cyclobutane carboxamide]
MIC [1]: 0.219 µg/mL (≈ 0.52 µM)
melting point: 183 to 185 °C
IC50 [2]: >100 µg/mL
IC50 (Vero cells): > 64 µg/mL

O=C1O[C@H](CNc2ccon2)[C@H]2COc3cc(N4CCSCC4)c(F)cc3N12 [Compound 31, (3R,3aR)-8-Fluoro-3-((isoxazol-3-ylamino)methyl)-7-thiomorpholino-3a,4-dihydro-1H, 3H-benzo[b]oxazolo[3,4-d][1,4]oxazin-1-one]
MIC [1]: 0.123 µg/mL (≈ 0.303 µM)
melting point: 149 to 150 °C
IC50 [2]: >100 µg/mL
IC50 (Vero cells): > 64 µg/mL
